Assay results as given in patent US20240408064A1, “RAS INHIBITORS, COMPOSITIONS AND METHODS OF USE THEREOF” (GENETOLEAD INC., priority 2021, published 2024).

What was measured:
Format in all cases: binding
wild type HRAS = wild type HRAS (Homo sapiens (Human), UniProt P01112); test: NMR Kd, wild type HRAS
Experimental: ^1H/^15N Fast-HSQC experiments (Mori et al., Journal of Magnetic Resonance, Series B, Volume 108, Issue 1, July 1995, Pages 94-98) were recorded at a protein concentration of 50-100 μM.
Dissociation constants were obtained by monitoring changes in chemical shifts as a function of ligand concentration. The changes in chemical shifts (d) were calculated according to the following equation (Williamson, Progress in Nuclear Magnetic Resonance Spectroscopy, Volume 73, August 2013, Pages 1-16): d=√(1/2[δ_H^2+[…]]), Where δ are the changes in chemical shift in ppm for ^1H and ^15N and the correction factor (α) was set at 0.15.
^1H 1D protein-observed experiments were recorded with 15-50 μM protein. The standard Bruker 1D ^1H sequence with excitation sculpting (zgesgp) was employed. A relaxation delay of 1 s was employed in order to use 256 scans while still keeping experimental time fairly short. Changes in protein chemical shift or peak intensity in the methyl region were monitored against compound concentration.
The activity of compounds of the invention regarding wild type HRAS was measured in the same as in Example 80. The results obtained with the compounds in the various assays described above are depicted in Table 2.

HRas^G12V [1] = molecular target: T1, HRas^G12V (Homo sapiens (Human), UniProt P01112, G12V); test: Dissociation constant by SPR
T1 sequence (P01112 1-166 G12V): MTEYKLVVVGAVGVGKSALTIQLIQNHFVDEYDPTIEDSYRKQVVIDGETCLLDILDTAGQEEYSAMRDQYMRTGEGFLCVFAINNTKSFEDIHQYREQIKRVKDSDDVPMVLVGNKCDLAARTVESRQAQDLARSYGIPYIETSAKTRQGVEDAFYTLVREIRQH
Experimental: SPR experiments were performed using the P4SPR from Affinité Instruments using Ni-NTA immobilization chips and his-tagged protein. Ni-NTA coated surfaces allow the immobilization of his-tagged proteins by chelation of histidine residues to the nickel ion. The sensor chip was inserted into a quad inlet model P4SPR (with 4 independent channels). Once the instrument was turned on, the baseline was stabilized by deionized (DI) water, followed by signal stabilization by the running buffer. His-tagged protein at 10 μg/mL was injected into all 4 channels of the P4SPR and was left to react for 20 min. The sensor chip was then washed with DI water. The lowest concentration of the ligand was injected into the channels of the P4SPR and was left to react for 10 min. The SPR shift was saved. Then, a higher concentration of the ligand was injected, and the sample injection steps were repeated until all 5 concentrations have been added. The KD of the binding interaction between the ligand and protein was determined by using the affinity curve fitting function in the P4SPR Control software.

HRas^G12V [2] = molecular target: T1, HRas^G12V; test: Dissociation constant by ITC
Experimental: ITC experiments were performed using a Nano ITC isothermal titration calorimeter from TA Instruments. Experiments were performed in reverse-mode by titrating 50 μL of protein solution at a concentration of 300-600 μM into 350 μL of ligand solution at concentrations between 10-50 μM. Stir rate was 200-250 rpm with 16-25 injections, each at 2-3 μL with 150 seconds between each injection. Data fitting was performed using Nano ITCRun software.

Chain of wild type HRAS (P01112 whole entry): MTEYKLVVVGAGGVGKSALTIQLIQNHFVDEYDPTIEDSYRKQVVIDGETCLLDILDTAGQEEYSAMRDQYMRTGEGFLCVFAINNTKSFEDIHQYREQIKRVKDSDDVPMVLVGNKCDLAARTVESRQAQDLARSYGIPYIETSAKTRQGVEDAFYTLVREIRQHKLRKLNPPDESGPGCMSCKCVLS

Compound CC(C)N1CCC(NC(=O)Cc2c[nH]c3cc(F)ccc23)CC1 [Compound 10018] has a Kd (wild type HRAS) of 5180 µM.
In the case of CN(C)CC(=O)Nc1cccc(NC(=O)Cc2c[nH]c3cc(F)ccc23)c1 [compound 10097], the Kd (HRas^G12V [1]) is reported as 31 µM and the Kd (HRas^G12V [2]) is reported as 17 to 159 µM.
